Values quoted from earlier work as cited in patent US20210338678A1, “BIOACTIVE VITAMIN COMBINATIONS” (BioVit, Inc., priority 2020, published 2021).

Legend:
[1] = system: CD8+T lymphocytes and natural killer (NK) cell activity; settings: vitamin B12-deficient patients
[2] = system: acute and chronic pain and inflammation; settings: mice
[3] = system: H1N1 influenza vaccine response; settings: mothers supplemented during pregnancy and postpartum
[4] = patients with type 2 diabetes, 16 weeks of treatment

For `C/C1=C2/[N-][C@H]([C@H](CC(N)=O)[C@@]2(C)CCC(=O)NC[C@@H](C)OP(=O)([O-])O[C@H]2[C@@H](O)[C@@H](n3cnc4cc(C)c(C)cc43)O[C@@H]2CO)[C@]2(C)N=C(/C(C)=C3N=C(/C=C4N=C1[C@@H](CCC(N)=O)C\4(C)C)[C@@H](CCC(N)=O)[C@]\3(C)CC(N)=O)[C@@H](CCC(N)=O)[C@]2(C)CC(N)=O.[CH3-].[Co+3]` [methylcobalamin, Methylcobalamin], the “antibody response of the immune system” value [1] is listed as “improves the antibody response of the immune system”.

In the case of cyanocobalamin, the “control of acute and chronic neuropathic pain” value [2] is given as “controlling acute and chronic neuropathic pain”.

For Vitamin B12, the “H1N1 influenza vaccine response” value [3] is listed as “improved H1N1 influenza vaccine response in mothers”.

For `CN(C)C(=N)N=C(N)N` [metformin, Metformin], the homocysteine [4] is listed as “modest increase in homocysteine” and the “levels of folate and vitamin B12” value [4] is listed as “reduces levels of folate and vitamin B12”.
